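Growth conditions: 96-well plates. Treatment: test compound, 48 hours, 5 concentrations. Analysis: linear interpolation between bracketing concentrations; unreached endpoints set to highest concentration. GI50 = concentration required for 50% inhibition of growth.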 Active and inactive are the calls of the source. Rule as the data show it: active = GI50 up to about 1.1 µM and inactive = higher.
Columns and labels:
Experiment in all cases: NCI tumour cell line growth inhibition, 48 h
T47D = system: T47D
HCC 2998 = system: HCC 2998
HOP-62 = system: HOP-62
IGROV-1 = system: IGROV-1
KM12 = system: KM12
M14 = system: M14
786-0 = system: 786-0
K562 = system: K562
RPMI-8226 = system: RPMI-8226
HCT-116 = system: HCT-116
OVCAR-4 = system: OVCAR-4
SF-268 = system: SF-268
TK-10 = system: TK-10
RXF 393 = system: RXF 393
SNB-75 = system: SNB-75
ACHN = system: ACHN
NCI-H522 = system: NCI-H522
CAKI-1 = system: CAKI-1
NCI/ADR-RES = system: NCI/ADR-RES

## COC(=O)c1sc2ncc3c(c2c1N)CC(C)CC3 (configuration not stated)
T47D
  GI50: > 100 µM (inactive)
HCC 2998
  GI50: > 100 µM (inactive)
HOP-62
  GI50: > 100 µM (inactive)
IGROV-1
  GI50: > 100 µM (inactive)
KM12
  GI50: > 100 µM (inactive)
M14
  GI50: > 100 µM (inactive)
786-0
  GI50: 81.3 µM (inactive)
K562
  GI50: > 100 µM (inactive)
RPMI-8226
  GI50: > 100 µM (inactive)
HCT-116
  GI50: > 100 µM (inactive)
OVCAR-4
  GI50: > 100 µM (inactive)
SF-268
  GI50: > 100 µM (inactive)
TK-10
  GI50: > 100 µM (inactive)
RXF 393
  GI50: 70.6 µM (inactive)
SNB-75
  GI50: 41.4 µM (inactive)
ACHN
  GI50: > 100 µM (inactive)
NCI-H522
  GI50: > 100 µM (inactive)
CAKI-1
  GI50: > 100 µM (inactive)
NCI/ADR-RES
  GI50: > 100 µM (inactive)

## Cc1ccc([N+](=O)[O-])c2c(NCC(O)CO)ccnc12 (configuration not stated)
T47D
  GI50: 49.7 µM (inactive)
HCC 2998
  GI50: 31.8 µM (inactive)
HOP-62
  GI50: 73.8 µM (inactive)
IGROV-1
  GI50: 43.2 µM (inactive)
KM12
  GI50: 32.2 µM (inactive)
M14
  GI50: 51.9 µM (inactive)
786-0
  GI50: 30.5 µM (inactive)
K562
  GI50: 50 µM (inactive)
RPMI-8226
  GI50: 84.9 µM (inactive)
HCT-116
  GI50: 44.4 µM (inactive)
OVCAR-4
  GI50: 52.8 µM (inactive)
SF-268
  GI50: 60.4 µM (inactive)
TK-10
  GI50: 48.2 µM (inactive)
RXF 393
  GI50: 45.9 µM (inactive)
SNB-75
  GI50: > 100 µM (inactive)
ACHN
  GI50: 57.5 µM (inactive)
NCI-H522
  GI50: > 10 µM (inactive)
CAKI-1
  GI50: 54 µM (inactive)
NCI/ADR-RES
  GI50: > 100 µM (inactive)

## Cc1sc2nc3n(c(=O)c2c1C)N=C(c1ccc(Cl)cc1)CS3
T47D
  GI50: > 100 µM (inactive)
HCC 2998
  GI50: > 100 µM (inactive)
HOP-62
  GI50: 66.1 µM (inactive)
KM12
  GI50: > 100 µM (inactive)
786-0
  GI50: > 100 µM (inactive)
K562
  GI50: > 100 µM (inactive)
RPMI-8226
  GI50: > 100 µM (inactive)
HCT-116
  GI50: > 100 µM (inactive)
OVCAR-4
  GI50: > 100 µM (inactive)
SF-268
  GI50: > 100 µM (inactive)
RXF 393
  GI50: > 100 µM (inactive)
SNB-75
  GI50: 48.2 µM (inactive)
ACHN
  GI50: > 100 µM (inactive)
NCI-H522
  GI50: > 100 µM (inactive)
CAKI-1
  GI50: > 100 µM (inactive)
NCI/ADR-RES
  GI50: > 100 µM (inactive)

## O=C(Nc1ccc2ncccc2c1)Nc1ccc2ncccc2c1
T47D
  GI50: > 100 µM (inactive)
HCC 2998
  GI50: > 100 µM (inactive)
HOP-62
  GI50: > 100 µM (inactive)
IGROV-1
  GI50: > 100 µM (inactive)
KM12
  GI50: > 100 µM (inactive)
M14
  GI50: > 100 µM (inactive)
786-0
  GI50: > 100 µM (inactive)
K562
  GI50: > 100 µM (inactive)
RPMI-8226
  GI50: > 100 µM (inactive)
HCT-116
  GI50: > 100 µM (inactive)
OVCAR-4
  GI50: > 100 µM (inactive)
SF-268
  GI50: > 100 µM (inactive)
TK-10
  GI50: > 100 µM (inactive)
RXF 393
  GI50: > 100 µM (inactive)
SNB-75
  GI50: > 100 µM (inactive)
ACHN
  GI50: > 100 µM (inactive)
NCI-H522
  GI50: > 100 µM (inactive)
CAKI-1
  GI50: > 100 µM (inactive)
NCI/ADR-RES
  GI50: > 100 µM (inactive)

## O=S(=O)(O)c1ccc(/N=N/c2ccc(/N=N/c3c(O)ccc4ccccc34)cc2)cc1
T47D
  GI50: 97.9 µM (inactive)
HCC 2998
  GI50: > 100 µM (inactive)
HOP-62
  GI50: > 100 µM (inactive)
IGROV-1
  GI50: 38.6 µM (inactive)
KM12
  GI50: 98.6 µM (inactive)
M14
  GI50: > 100 µM (inactive)
786-0
  GI50: > 100 µM (inactive)
K562
  GI50: > 100 µM (inactive)
RPMI-8226
  GI50: > 100 µM (inactive)
HCT-116
  GI50: > 100 µM (inactive)
OVCAR-4
  GI50: > 100 µM (inactive)
SF-268
  GI50: > 100 µM (inactive)
TK-10
  GI50: > 100 µM (inactive)
RXF 393
  GI50: > 100 µM (inactive)
SNB-75
  GI50: > 100 µM (inactive)
ACHN
  GI50: > 100 µM (inactive)
NCI-H522
  GI50: > 100 µM (inactive)
CAKI-1
  GI50: > 100 µM (inactive)
NCI/ADR-RES
  GI50: > 100 µM (inactive)

## CC(C)C1CC(CO)(CNc2nc(N)nc(Cl)c2C=O)C1 (configuration not stated)
T47D
  GI50: 6.01 µM (inactive)
HCC 2998
  GI50: 1.97 µM (inactive)
HOP-62
  GI50: 18.8 µM (inactive)
IGROV-1
  GI50: 1.89 µM (inactive)
KM12
  GI50: 7.35 µM (inactive)
M14
  GI50: 1.77 µM (inactive)
786-0
  GI50: 31.3 µM (inactive)
K562
  GI50: 2.56 µM (inactive)
RPMI-8226
  GI50: 11 µM (inactive)
HCT-116
  GI50: 2.84 µM (inactive)
OVCAR-4
  GI50: 4.81 µM (inactive)
SF-268
  GI50: 4.79 µM (inactive)
TK-10
  GI50: > 66.8 µM (inactive)
RXF 393
  GI50: 7.93 µM (inactive)
SNB-75
  GI50: 7.87 µM (inactive)
ACHN
  GI50: 5.35 µM (inactive)
NCI-H522
  GI50: 0.604 µM (active)
CAKI-1
  GI50: 2.17 µM (inactive)
NCI/ADR-RES
  GI50: 6.03 µM (inactive)

## COc1ccc(-n2c(C)nc3ccc(NC4OCC(OC(C)=O)C(OC(C)=O)C4OC(C)=O)cc3c2=O)cc1 (configuration not stated)
T47D
  GI50: > 100 µM (inactive)
HCC 2998
  GI50: 97.1 µM (inactive)
HOP-62
  GI50: > 100 µM (inactive)
IGROV-1
  GI50: > 100 µM (inactive)
KM12
  GI50: > 100 µM (inactive)
786-0
  GI50: > 100 µM (inactive)
K562
  GI50: > 100 µM (inactive)
RPMI-8226
  GI50: 35.9 µM (inactive)
HCT-116
  GI50: > 100 µM (inactive)
OVCAR-4
  GI50: > 100 µM (inactive)
SF-268
  GI50: > 100 µM (inactive)
TK-10
  GI50: > 100 µM (inactive)
RXF 393
  GI50: > 100 µM (inactive)
SNB-75
  GI50: > 100 µM (inactive)
ACHN
  GI50: > 100 µM (inactive)
NCI-H522
  GI50: > 100 µM (inactive)
CAKI-1
  GI50: > 100 µM (inactive)
NCI/ADR-RES
  GI50: > 100 µM (inactive)

## C=CCOc1ccc2c(C)cc(=O)oc2c1C
T47D
  GI50: 47.9 µM (inactive)
HCC 2998
  GI50: 33 µM (inactive)
HOP-62
  GI50: > 100 µM (inactive)
IGROV-1
  GI50: 63 µM (inactive)
KM12
  GI50: 59.7 µM (inactive)
M14
  GI50: 46.5 µM (inactive)
786-0
  GI50: 84.9 µM (inactive)
K562
  GI50: 52.5 µM (inactive)
RPMI-8226
  GI50: 35.5 µM (inactive)
HCT-116
  GI50: 40.5 µM (inactive)
OVCAR-4
  GI50: 96.4 µM (inactive)
SF-268
  GI50: 55.3 µM (inactive)
RXF 393
  GI50: 23.1 µM (inactive)
SNB-75
  GI50: 52.6 µM (inactive)
ACHN
  GI50: 51.8 µM (inactive)
NCI-H522
  GI50: 29.2 µM (inactive)
CAKI-1
  GI50: 24.1 µM (inactive)
NCI/ADR-RES
  GI50: 46.8 µM (inactive)

Source: ChEMBL document CHEMBL1201862, “PubChem BioAssay data set” (2004)
